This is an account of results in patent EP2077260B1, “AMIDE COMPOUND OR SALT THEREOF, AND BIOFILM FORMATION INHIBITOR, BIOFILM REMOVER AND BACTERICIDE EACH USING THE AMIDE COMPOUND OR SALT THEREOF” (The University of Tokyo, priority 2006, dated 2008).

Structures are written as SMILES. Values after ≈ are worked out from the molar mass of the structure shown. Like-named read-outs stand apart in the source and are kept apart here.

The test system of assay [1] is Escherichia coli ATCC 25922. Description: Evaluation test for disinfecting effect, broth dilution method CLSI(M7-A7)2006. The settings on record: 37°C, 18 hours. Type of assay: cell-based. The source says:
(§1) The following test compounds were examined for the disinfecting activities against Pseudomonas aeruginosa, E.. Coli and staphylococcus aureus, according to a broth dilution method of "CLSI(M7-A7)2006" (Clinical and Laboratory Standards Institute, M7-A7, Methods for Dilution Antimicrobial Susceptibility Tests for Bacteria That Grow Aerobically; Approved Standard-Seventh Edition, 2006),
(§2) • Pseudomonas aeruginosa PAO1 • Pseudomonas aeruginosa ATCC 27853 • Escherichia coli ATCC 25922 • Staphylococcus aureus ATCC 29213 • Staphylococcus aureus Methicillin resistant (MRSA) ATCC 43300
(§3) Each of above-mentioned bacteria was inoculated in a TSB culture medium (Bacto TSB Broth, product of BD) for overnight cultivation at 37°C. The culture solution was applied to a TSB agar plate for about a 20-hour cultivation to form colonies. Three to five colonies were taken from the agar plate, and an average colony of them was inoculated in a 4mL TSB culture medium.. The colony was cultivated at 35°C until the number of microorganisms became 1 × 10^8 to 2 x 10^8 CFU/mL. The number of microorganisms with time was found by measuring changes in absorbency at 590nm of culture solution with time. When the turbidity became equivalent to 0.5 McFarland standard, it was determined that the number of microorganisms reached the target level = 1 × 10^8 to 2 × 10^8 CFU/mL.
(§4) The bacillus culture solution thus obtained was diluted 10-fold within 15 minutes, and a 5µL portion was inoculated in each well of an evaluation 96-well microplate. This 96-well microplate was a sterilized 96-well microplate with U-shaped bottoms (Falcon 35-3918: product of BD), and each well was filled with a 100µL portion of MH culture medium (BBL MH Broth: product of BD). Within 15 minutes after inoculation of the bacillus culture solutions, the test compounds were supplied to the well in a manner of 2-fold graded dilution. The cultivation was then carried out at 37°C for 18 hours.
(§5) The MIC was determined as follows. "S (susceptible)" indicates a concentration which caused 80% or more reduction in the diameter of the aggregation deposited in the bottom of the well, compared to when the test liquid is not used. "R (Resistant)" indicates a concentration that caused less than 80% reduction in diameter. The reduction was measured visually.. "I(Intermediate)" indicates a concentration that cannot be measured visually
On the technique in general: Dilution methods test growth across graded concentrations, often in twofold steps.

Assay [2] concerns Pseudomonas aeruginosa ATCC 27853. The assay is described as above. Type of assay: cell-based. The note with it: 37°C, 18 hours.
Description: as §1, §2, §3, §4, §5

Assay [3] deals with Pseudomonas aeruginosa PAO1. The description is as above. Type of assay: cell-based. The settings on record: 37°C, 18 hours.
Description: as §1, §2, §3, §4, §5

Assay [4] deals with Staphylococcus aureus ATCC 29213. Described as above. The note with it: 37°C, 18 hours. Type of assay: cell-based.
Description: as §1, §2, §3, §4, §5

For assay [5], the system named is Staphylococcus aureus Methicillin resistant (MRSA) ATCC 43300. The assay is described as above. Type of assay: cell-based. The note with it: 37°C, 18 hours.
Description: as §1, §2, §3, §4, §5

The test system of assay [6] is Pseudomonas aeruginosa ATCC 27853. The settings on record: Publicly-known data, CLSI(M100-S16)2006 liquid dilution method; cited from earlier work.
The subject of assay [7] is Escherichia coli ATCC 25922. The note with it: Publicly-known data, CLSI(M100-S16)2006 liquid dilution method; cited from earlier work.
For assay [8], the system named is Staphylococcus aureus ATCC 29213. The note with it: Publicly-known data, CLSI(M100-S16)2006 liquid dilution method; cited from earlier work.

As to `NC[C@H]1O[C@H](O[C@H]2[C@H](O)[C@@H](O[C@H]3O[C@H](CO)[C@@H](O)[C@H](N)[C@H]3O)[C@H](N)C[C@@H]2N)[C@H](N)C[C@@H]1O` [TOB, Tobramycin], the MIC in assay [1] (ATCC25922, I (Intermediate): concentration that cannot be measured visually, read-out: MIC (µg/mL) I) was 0.5 µg/mL (≈ 1.07 µM); in assay [1] (ATCC25922, R (Resistant): concentration that caused less than 80% reduction in diameter of the aggregation, read-out: MIC (µg/mL) R), no more than 0.25 µg/mL; in assay [1] (ATCC25922, S (susceptible): concentration which caused 80% or more reduction in diameter of the aggregation, read-out: MIC (µg/mL) S), no less than 1 µg/mL; in assay [2] (ATCC27853, I (Intermediate): concentration that cannot be measured visually, read-out: MIC (µg/mL) I), 0.5 µg/mL (≈ 1.07 µM); in assay [2] (ATCC27853, R (Resistant): concentration that caused less than 80% reduction in diameter of the aggregation, read-out: MIC (µg/mL) R), no more than 0.25 µg/mL; in assay [2] (ATCC27853, S (susceptible): concentration which caused 80% or more reduction in diameter of the aggregation, read-out: MIC (µg/mL) S), no less than 1 µg/mL. The MIC in assay [3] (PAO1, I (Intermediate): concentration that cannot be measured visually, read-out: MIC (µg/mL) I) is 0.5 µg/mL (≈ 1.07 µM); in assay [3] (PAO1, R (Resistant): concentration that caused less than 80% reduction in diameter of the aggregation, read-out: MIC (µg/mL) R), no more than 0.25 µg/mL; in assay [3] (PAO1, S (susceptible): concentration which caused 80% or more reduction in diameter of the aggregation, read-out: MIC (µg/mL) S) it was greater than 1 µg/mL; in assay [4] (ATCC29213, I (Intermediate): concentration that cannot be measured visually, read-out: MIC (µg/mL) I), 0.25 µg/mL (≈ 0.535 µM); in assay [4] (ATCC29213, R (Resistant): concentration that caused less than 80% reduction in diameter of the aggregation, read-out: MIC (µg/mL) R), no more than 0.125 µg/mL; in assay [4] (ATCC29213, S (susceptible): concentration which caused 80% or more reduction in diameter of the aggregation, read-out: MIC (µg/mL) S) it was no less than 0.5 µg/mL. For the same molecule, the MIC in assay [5] (I (Intermediate): concentration that cannot be measured visually, read-out: MIC (µg/mL) I) was 128 µg/mL (≈ 274 µM); in assay [5] (R (Resistant): concentration that caused less than 80% reduction in diameter of the aggregation, read-out: MIC (µg/mL) R) it was no more than 64 µg/mL; in assay [5] (S (susceptible): concentration which caused 80% or more reduction in diameter of the aggregation, read-out: MIC (µg/mL) S), no less than 256 µg/mL. Also, the “MIC (µg/mL) from M100-S16” value is 0.25 to 1 µg/mL in assay [6], 0.25 to 1 µg/mL in assay [7] and 0.12 to 1 µg/mL in assay [8].
